What follows are compounds tested against Acetylcholinesterase (Homo sapiens, UniProt P22303) (assay: Inhibition of human recombinant AChE using acetylthiocholine iodide as substrate by spectrophotometric analysis). Conditions: not given; call rule not given here.
Chain of Acetylcholinesterase (P22303 whole entry): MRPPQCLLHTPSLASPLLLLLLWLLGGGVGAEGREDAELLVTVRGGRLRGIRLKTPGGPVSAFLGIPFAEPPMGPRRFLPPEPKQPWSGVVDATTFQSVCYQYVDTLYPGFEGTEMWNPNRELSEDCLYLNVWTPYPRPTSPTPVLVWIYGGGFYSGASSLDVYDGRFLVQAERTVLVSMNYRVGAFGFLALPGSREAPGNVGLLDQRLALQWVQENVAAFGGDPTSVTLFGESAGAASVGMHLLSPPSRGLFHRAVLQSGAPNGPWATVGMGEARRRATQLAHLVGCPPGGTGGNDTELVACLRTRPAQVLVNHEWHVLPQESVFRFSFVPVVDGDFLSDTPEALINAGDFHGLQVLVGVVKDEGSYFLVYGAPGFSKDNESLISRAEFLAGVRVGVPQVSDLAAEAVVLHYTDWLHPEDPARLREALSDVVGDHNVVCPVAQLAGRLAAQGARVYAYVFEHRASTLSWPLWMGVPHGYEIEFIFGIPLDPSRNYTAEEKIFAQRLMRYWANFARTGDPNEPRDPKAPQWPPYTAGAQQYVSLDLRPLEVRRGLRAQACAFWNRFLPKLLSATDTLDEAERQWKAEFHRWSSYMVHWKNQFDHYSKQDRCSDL

In the case of `CCOC(=O)c1ccc2nc(-c3ccc(Cl)cc3)c3c(c2c1)OCCC3`, the IC50 is reported as “Not Active”.

Same assay, conditions: read-out: IC50

`O=C(NCCCCNc1c2c(nc3cc(Cl)ccc13)CCCC2)c1ccc2nc(-c3ccc(Cl)cc3)c3c(c2c1)NCCC3` and `O=C(NCCCCCNc1c2c(nc3cc(Cl)ccc13)CCCC2)c1ccc2nc(-c3ccc(Cl)cc3)c3c(c2c1)NCCC3` are the same in IC50: 14.2 nM for the first, 14.2 nM for the second.

First: O=C(NCCCCCCCCNc1c2c(nc3cc(Cl)ccc13)CCCC2)c1ccc2nc(-c3ccc(Cl)cc3)c3c(c2c1)OCCC3
Second: O=C(NCCCNc1c2c(nc3cc(Cl)ccc13)CCCC2)c1ccc2nc(-c3ccc(Cl)cc3)c3c(c2c1)NCCC3
The IC50 of the first is 3200-fold higher: 19.3 nM for the first, 0.006 nM for the second.

These compounds were tested against Cholinesterase (Homo sapiens, UniProt P06276) (assay: Inhibition of human recombinant BChE using butyrylthiocholine iodide as substrate by spectrophotometric analysis). Conditions: not given.
Chain of Cholinesterase (P06276 whole entry): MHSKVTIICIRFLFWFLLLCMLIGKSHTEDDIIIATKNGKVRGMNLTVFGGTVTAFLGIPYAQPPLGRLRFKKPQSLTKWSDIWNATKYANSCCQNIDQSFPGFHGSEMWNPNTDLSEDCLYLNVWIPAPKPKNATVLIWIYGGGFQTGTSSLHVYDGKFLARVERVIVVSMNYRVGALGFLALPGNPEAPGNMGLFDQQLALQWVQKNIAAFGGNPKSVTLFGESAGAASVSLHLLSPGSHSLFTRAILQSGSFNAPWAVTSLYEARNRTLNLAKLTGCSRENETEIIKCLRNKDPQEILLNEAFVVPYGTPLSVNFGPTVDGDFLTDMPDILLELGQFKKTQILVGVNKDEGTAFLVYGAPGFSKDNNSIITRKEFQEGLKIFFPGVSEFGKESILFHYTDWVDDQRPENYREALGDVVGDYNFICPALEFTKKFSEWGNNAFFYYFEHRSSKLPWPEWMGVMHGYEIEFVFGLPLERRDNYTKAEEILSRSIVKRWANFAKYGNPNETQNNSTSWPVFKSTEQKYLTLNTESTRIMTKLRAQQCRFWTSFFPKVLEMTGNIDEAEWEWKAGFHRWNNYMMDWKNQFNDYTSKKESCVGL

With `CCOC(=O)c1ccc2nc(-c3ccc(Cl)cc3)c3c(c2c1)OCCC3` the IC50 was “Not Active”.

Same assay, conditions: read-out: IC50

Compared with `O=C(NCCCCNc1c2c(nc3cc(Cl)ccc13)CCCC2)c1ccc2nc(-c3ccc(Cl)cc3)c3c(c2c1)NCCC3`, `O=C(NCCCCCNc1c2c(nc3cc(Cl)ccc13)CCCC2)c1ccc2nc(-c3ccc(Cl)cc3)c3c(c2c1)NCCC3` is 1.6-fold higher in IC50: 205 nM for the first, 337 nM for the second. The first is the more potent here.

Compared with `O=C(NCCCCCCCCNc1c2c(nc3cc(Cl)ccc13)CCCC2)c1ccc2nc(-c3ccc(Cl)cc3)c3c(c2c1)OCCC3`, `O=C(NCCCNc1c2c(nc3cc(Cl)ccc13)CCCC2)c1ccc2nc(-c3ccc(Cl)cc3)c3c(c2c1)NCCC3` is 1.9-fold lower in IC50: 223 nM for the first, 120 nM for the second.

These compounds were tested against Amyloid-beta precursor protein (Homo sapiens) (UniProt P05067) (assay: Inhibition of aggregation of amyloid beta-42 (unknown origin) expressed in Escherichia coli BL21 (DE3) assessed as amyloid fibril formation at 10 uM after 24 hrs by thioflavin S fluorescence method). Conditions: not given.
Chain of Amyloid-beta precursor protein (Homo sapiens) (P05067 whole entry): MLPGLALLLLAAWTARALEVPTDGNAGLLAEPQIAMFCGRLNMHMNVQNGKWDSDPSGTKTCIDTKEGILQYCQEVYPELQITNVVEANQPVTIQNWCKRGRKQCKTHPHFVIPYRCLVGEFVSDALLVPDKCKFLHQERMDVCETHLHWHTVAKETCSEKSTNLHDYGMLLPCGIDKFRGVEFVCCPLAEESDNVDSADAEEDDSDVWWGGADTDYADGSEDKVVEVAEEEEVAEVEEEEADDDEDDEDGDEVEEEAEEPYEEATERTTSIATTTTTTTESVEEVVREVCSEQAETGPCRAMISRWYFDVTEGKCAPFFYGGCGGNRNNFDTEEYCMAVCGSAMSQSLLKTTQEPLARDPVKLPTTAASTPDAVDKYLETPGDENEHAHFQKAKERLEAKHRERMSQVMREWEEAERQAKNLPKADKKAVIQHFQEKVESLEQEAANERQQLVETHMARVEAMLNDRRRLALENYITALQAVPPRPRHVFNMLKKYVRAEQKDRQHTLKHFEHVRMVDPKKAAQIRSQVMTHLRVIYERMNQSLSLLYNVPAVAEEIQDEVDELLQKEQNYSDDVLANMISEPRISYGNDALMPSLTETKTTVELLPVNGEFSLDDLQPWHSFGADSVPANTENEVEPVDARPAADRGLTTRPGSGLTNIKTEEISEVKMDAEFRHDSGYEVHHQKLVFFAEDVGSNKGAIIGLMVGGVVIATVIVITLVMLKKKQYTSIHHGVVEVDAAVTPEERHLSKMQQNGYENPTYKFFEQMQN

Compared with `Nc1c2c(nc3cc(Cl)ccc13)CCCC2`, `O=C(NCCCNc1c2c(nc3cc(Cl)ccc13)CCCC2)c1ccc2nc(-c3ccc(Cl)cc3)c3c(c2c1)NCCC3` is higher in inhibition: 11% for the first, 52.5% for the second.

First: O=C(NCCCCNc1c2c(nc3cc(Cl)ccc13)CCCC2)c1ccc2nc(-c3ccc(Cl)cc3)c3c(c2c1)NCCC3
Second: O=C(NCCCCCNc1c2c(nc3cc(Cl)ccc13)CCCC2)c1ccc2nc(-c3ccc(Cl)cc3)c3c(c2c1)NCCC3
The inhibition of the first is higher: 55.8% for the first, 54.3% for the second.

Going from `CCOC(=O)c1ccc2nc(-c3ccc(Cl)cc3)c3c(c2c1)OCCC3` to `O=C(NCCCCCCCCNc1c2c(nc3cc(Cl)ccc13)CCCC2)c1ccc2nc(-c3ccc(Cl)cc3)c3c(c2c1)OCCC3`, the inhibition rises from 41.8% to 54.6%.

`O=C(NCCCCCCCCNc1c2c(nc3cc(Cl)ccc13)CCCC2)c1ccc2nc(-c3ccc(Cl)cc3)c3c(c2c1)NCCC3` gave an inhibition of 77.5%.

The compounds below were run against Microtubule-associated protein tau (Homo sapiens) (UniProt P10636) (assay: Inhibition of aggregation of tau protein (unknown origin) expressed in Escherichia coli BL21 (DE3) assessed as amyloid fibril formation at 10 uM after 24 hrs by thioflavin S fluorescence method). Conditions: not given.
Chain of Microtubule-associated protein tau (Homo sapiens) (P10636 whole entry): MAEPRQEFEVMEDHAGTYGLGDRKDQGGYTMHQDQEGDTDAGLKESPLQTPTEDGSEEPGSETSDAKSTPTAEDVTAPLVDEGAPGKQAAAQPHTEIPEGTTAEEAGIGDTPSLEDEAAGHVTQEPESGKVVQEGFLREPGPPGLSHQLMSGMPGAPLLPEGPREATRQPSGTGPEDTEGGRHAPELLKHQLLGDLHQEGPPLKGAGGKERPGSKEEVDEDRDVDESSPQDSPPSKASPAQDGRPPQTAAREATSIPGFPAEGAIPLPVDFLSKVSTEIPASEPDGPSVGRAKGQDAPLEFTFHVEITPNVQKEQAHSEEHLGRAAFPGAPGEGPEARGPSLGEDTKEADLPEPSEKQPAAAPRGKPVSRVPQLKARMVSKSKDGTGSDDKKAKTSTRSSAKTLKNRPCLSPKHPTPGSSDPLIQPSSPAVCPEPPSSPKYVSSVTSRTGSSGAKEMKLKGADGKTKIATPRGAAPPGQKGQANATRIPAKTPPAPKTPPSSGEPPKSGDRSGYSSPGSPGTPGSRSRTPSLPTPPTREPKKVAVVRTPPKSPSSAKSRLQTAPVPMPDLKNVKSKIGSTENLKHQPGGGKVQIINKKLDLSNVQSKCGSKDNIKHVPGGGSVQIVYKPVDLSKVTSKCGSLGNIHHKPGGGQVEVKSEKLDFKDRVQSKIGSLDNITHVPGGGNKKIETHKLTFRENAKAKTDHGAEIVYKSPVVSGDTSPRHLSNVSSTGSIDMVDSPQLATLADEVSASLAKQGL

Compared with `Nc1c2c(nc3cc(Cl)ccc13)CCCC2`, `O=C(NCCCNc1c2c(nc3cc(Cl)ccc13)CCCC2)c1ccc2nc(-c3ccc(Cl)cc3)c3c(c2c1)NCCC3` is higher in inhibition: 1.4% for the first, 40.7% for the second.

First: O=C(NCCCCNc1c2c(nc3cc(Cl)ccc13)CCCC2)c1ccc2nc(-c3ccc(Cl)cc3)c3c(c2c1)NCCC3
Second: O=C(NCCCCCNc1c2c(nc3cc(Cl)ccc13)CCCC2)c1ccc2nc(-c3ccc(Cl)cc3)c3c(c2c1)NCCC3
The inhibition of the first is higher: 58.9% for the first, 57.7% for the second.

First: CCOC(=O)c1ccc2nc(-c3ccc(Cl)cc3)c3c(c2c1)OCCC3
Second: O=C(NCCCCCCCCNc1c2c(nc3cc(Cl)ccc13)CCCC2)c1ccc2nc(-c3ccc(Cl)cc3)c3c(c2c1)OCCC3
The inhibition of the first is lower: 27.9% for the first, 37.8% for the second.

`O=C(NCCCCCCCCNc1c2c(nc3cc(Cl)ccc13)CCCC2)c1ccc2nc(-c3ccc(Cl)cc3)c3c(c2c1)NCCC3` gave an inhibition of 68.7%.

Reference: ChEMBL document CHEMBL3352669, “Tetrahydrobenzo[h][1,6]naphthyridine-6-chlorotacrine hybrids as a new family of anti-Alzheimer agents targeting β-amyloid, tau, and cholinesterase pathologies” (Eur J Med Chem, 2014)
